Tests used:
AVEFA = experiment: Post-emergence application in field trials (Examples 2 and 3); assay type: in vivo, Avena fatua; settings: 1% v/v MSO
Method: (§1) In the examples below, using the method of S. R. Colby (1967) “Calculating synergistic and antagonistic responses of herbicide combinations”, Weeds 15, p. 22ff., the value E, which is expected if the activity of the individual active compounds is only additive, was calculated.
(§2) [formula] • where • X=percent activity using active herbicide A at an application rate a; • Y=percent activity using active saflufenacil at an application rate b; • E=expected activity (in %) by A+B at application rates a+b.
(§3) If the value found experimentally is higher than the value E calculated according to Colby, a synergistic effect is present.
(§4) On field test sites, natural weed infestation or seeded weeds were treated post-emergence of the weeds.
(§5) For the post emergence treatment, the weedy plants were treated as indicated below. The herbicidal compositions were, together with the adjuvant(s) as indicated, suspended or emulsified in water (200 l/ha unless indicated otherwise) as distribution medium and sprayed with commercial flat fan nozzles.
(§6) In the following experiments, the herbicidal activity for the individual herbicidal compositions (solo and mixture applications) was assessed the indicated days after treatment (DAT). The assessments for the damage on undesired weeds caused by the composition was carried out using a scale from 0 to 100%, compared to the untreated control plants. Here, 0 means no damage and 100 means complete destruction of the plants.
as §5, with “I/ha” for “l/ha”

CHEAL = experiment: Post-emergence application in greenhouse trials; assay type: in vivo, Chenopodium album; settings: B-1 3.12 g ai/ha, 21 DAT, growth stage 51, saflufenacil as commercial 342 g/l SC formulation
Method: as §1, §2, §3
(§7) The culture containers used were plastic pots containing loamy sand with approximately 3.0% of humus as substrate. The seeds of the test plants were sown separately for each species.
For the post-emergence treatment, the test plants were grown to a plant height of from 3 to 15 cm, depending on the plant habit, and only then treated with the active compounds which had been suspended or emulsified in water. To this end, the test plants were either sown directly, and grown in the same containers, or they were first grown separately as seedlings and transplanted into the test containers a few days prior to treatment. […]
The test period extended over 2 to 4 weeks. During this time, the plants were tended and their response to the individual treatments was evaluated. […]

SETIT = experiment: Post-emergence application in field trials (Examples 2 and 3); assay type: in vivo, Setaria italica; settings: height 21-31 cm, B-1 solo 25 g ai/ha, 22 DAT, 1% v/v MSO
Method: as §1, §2, §3, §4, §5
as §6, with “Here, 0 means no damage and 100 means complete destruction of the plants.” left out

[1] = test system: HORVS* (non-PPOi herbicide tolerant); experiment: as above; assay type: in vivo, Hordeum vulgare; settings: 1% v/v MSO
Method: as §1, §2, §3, §4, §5, §6
as §5, with “I/ha” for “l/ha”

ECHCG [2] = experiment: as above; assay type: in vivo, Echinocloa crus-galli
Method: as §1, §2, §3, §4, §5, §6
as §5, with “I/ha” for “l/ha”

STEME = experiment: as above; assay type: in vivo, Stellaria media; settings: B-1 12.5 g ai/ha, 21 DAT, growth stage 63-67, height 7-18 cm, 140 l/ha water, 1% MSO + 2.5% ammoniumsulfate
Method: as §1, §2, §3, §4, §5
as §6, with “Here, 0 means no damage and 100 means complete destruction of the plants.” left out

ERICA = experiment: Post-emergence application in greenhouse trials; assay type: in vivo, Erigeron canadensis; settings: B-1 3.12 g ai/ha, 21 DAT, growth stage 31, saflufenacil as commercial 342 g/l SC formulation
Method: as §1, §2, §3, §7
(§8) For the post-emergence treatment, the test plants were grown to a plant height of from 3 to 15 cm, depending on the plant habit, and only then treated with the active compounds which had been suspended or emulsified in water. To this end, the test plants were either sown directly, and grown in the same containers, or they were first grown separately as seedlings and transplanted into the test containers a few days prior to treatment.
(§9) Depending on the species, the plants were kept at 10-25° C. and 20-35° C., respectively.
(§10) The test period extended over 2 to 4 weeks. During this time, the plants were tended and their response to the individual treatments was evaluated.
(§11) Evaluation was carried out using a scale from 0 to 100. 100 means no emergence of the plants, or complete destruction of at least the above-ground parts, and 0 means no damage or normal course of growth. A good herbicidal activity is given at values of at least 70, and very good herbicidal activity is given at values of at least 85.
(§12) Unless indicated otherwise, herbicide A and saflufenacil were formulated (50 g/I) and applied with addition of 1% MSO (methylated seed oil) as adjuvant. In the greenhouse trials, the solvent used was water (200 I/ha).

BIDPI = experiment: Post-emergence application in field trials (Examples 2 and 3); assay type: in vivo, Bidens pilosa; settings: B-1 25 g ai/ha, 21 DAT, growth stage 12-16, height 5-10 cm, 0.5% MSO
Method: as §1, §2, §3, §4, §5
as §6, with “Here, 0 means no damage and 100 means complete destruction of the plants.” left out

SETFA = experiment: Post-emergence application in greenhouse trials; assay type: in vivo, Setaria faberi; settings: 7 DAT, growth stage 13, 1% MSO
Method: as §1, §2, §3, §7, §8, §9, §10, §11, §12

COMBE = experiment: Post-emergence application in greenhouse trials; assay type: in vivo, Commelina benghalensis; settings: growth stage 21, 1% MSO
Method: as §1, §2, §3, §7, §8, §9, §10, §11, §12

IPOTR = experiment: Post-emergence application in field trials (Examples 2 and 3); assay type: in vivo, Ipomoea triloba; settings: growth stage 40-41, height 65-75 cm, B-1 solo 25 g ai/ha, 21 DAT, 1% Dash ® HC
Method: as §1, §2, §3, §4, §5
as §6, with “Here, 0 means no damage and 100 means complete destruction of the plants.” left out

BRADC = experiment: as above; assay type: in vivo, Brachiaria decumbens; settings: growth stage 22-23, height 32-38 cm, B-1 solo 25 g ai/ha, 21 DAT, 1% Dash ® HC
Method: as §1, §2, §3, §4, §5, §6
as §5, with “I/ha” for “l/ha”

ECHCG [3] = experiment: Post-emergence application in greenhouse trials; assay type: in vivo, Echinocloa crus-galli; settings: B-1 3.12 g ai/ha, growth stage 13, saflufenacil as commercial 342 g/l SC formulation
Method: as §1, §2, §3, §7, §8, §9, §10, §11, §12

LOLRI = experiment: Post-emergence application in field trials (Examples 2 and 3); assay type: in vivo, Lolium rigidum; settings: growth stage 12-22, B-1 solo 25 g ai/ha, 14 DAT, 1% v/ MSO
Method: as §1, §2, §3, §4, §5
as §6, with “Here, 0 means no damage and 100 means complete destruction of the plants.” left out

DIGIN = experiment: as above; assay type: in vivo, Digitaria insularis
Method: as §1, §2, §3, §4, §5, §6
as §5, with “I/ha” for “l/ha”

With `CC(C)N(C)S(=O)(=O)NC(=O)c1cc(-n2c(=O)cc(C(F)(F)F)n(C)c2=O)c(F)cc1Cl` [B-1, saflufenacil] the “% Herbicidal activity” value (AVEFA; AVEFA, growth stage 15-16, height 25-38 cm, B-1 solo 25 g ai/ha, 16 DAT) was 3%, the “% Herbicidal activity” value (AVEFA; B-1 18 g ai/ha, 28 DAT, growth stage 14-15, height 9-16 cm, field, 100 l/ha water) was 0% and the “% Herbicidal activity” value (AVEFA; B-1 18 g ai/ha, 29 DAT, growth stage 14-23, height 24-40 cm, field, 100 l/ha water) was 0%. For the same molecule, the “% Herbicidal activity” value (CHEAL) was 85%, the “% Herbicidal activity” value (SETIT) was 23% and the “% Herbicidal activity” value ([1]; B-1 18 g ai/ha, 29 DAT, growth stage 15-24, height 25-45 cm, field, 100 l/ha water) was 0%. The “% Herbicidal activity” value ([1]; HORVS* (non-PPOi herbicide tolerant), growth stage 15, height 31-43 cm, B-1 solo 25 g ai/ha, 16 DAT) was 3%, the “% Herbicidal activity” value (ECHCG [2]; B-1 12.5 g ai/ha, 14 DAT, growth stage 14-19, height 2-8 cm, field, 140 l/ha water, 1% MSO + 2.5% ammoniumsulfate) was 40% and the “% Herbicidal activity” value (ECHCG [2]; B-1 25 g ai/ha, 21 DAT, height 12.5-30 cm, field, 1% v/v MSO and 1% w/v ammoniumsulfate) was 23%. For the same molecule, the “% Herbicidal activity” value (ECHCG [2]; ECHCG, growth stage 21-23, height 43-44 cm, B-1 solo 25 g ai/ha, 21 DAT, 1% Dash ® HC) was 27%, the “% Herbicidal activity” value (STEME) was 53% and the “% Herbicidal activity” value (ERICA) was 30%. For the same molecule, the “% Herbicidal activity” value (BIDPI) was 5%, the “% Herbicidal activity” value (SETFA; B-1 0.5 g ai/ha) was 10% and the “% Herbicidal activity” value (SETFA; B-1 0.8 g ai/ha) was 15%. The “% Herbicidal activity” value (SETFA; B-1 0.9 g ai/ha) was 15%, the “% Herbicidal activity” value (SETFA; B-1 1.1 g ai/ha) was 35% and the “% Herbicidal activity” value (COMBE; B-1 0.2 g ai/ha, 6 DAT) was 15%. The “% Herbicidal activity” value (COMBE; B-1 0.2 g ai/ha, 20 DAT) was 5%, the “% Herbicidal activity” value (COMBE; B-1 0.8 g ai/ha, 20 DAT) was 75% and the “% Herbicidal activity” value (IPOTR) was 43%. For the same molecule, the “% Herbicidal activity” value (BRADC) was 12%, the “% Herbicidal activity” value (ECHCG [3]; 7 DAT) was 65% and the “% Herbicidal activity” value (ECHCG [3]; 21 DAT) was 40%. The “% Herbicidal activity” value (LOLRI) was 20%, the “% Herbicidal activity” value (DIGIN; B-1 25 g ai/ha, 7 DAT, height 60-80 cm, field, 0.5% v/v MSO) was 8% and the “% Herbicidal activity” value (DIGIN; DIGIN, growth stage 65, height 40-50 cm, B-1 solo 25 g ai/ha, 21 DAT, 1% v/v MSO) was 5%.
